According to patent publication US11299710B2, “Brown adipocyte progenitors in human skeletal muscle” (ENERGESIS PHARMACEUTICALS, INC., priority 2011, dated 2022):
Several values for one entry are separate records, joined by “and”; a condition that tells them apart may be missing. Equal entries are not always repeated.

Key:
[1] = test system: CD31- cells; assay: Quantification of UCP1 protein by fluorescence immunohistochemistry in CD31- cells; format: cell-based, human; details: rosiglitazone 1 μM in MDM from day 0, 15 days
Excerpt: Using this method, UCP1 staining can be evaluated using automated high content imaging. GE Healthcare's InCell 1000 High Content Imager combines automated microscopy with high content image analysis software (InCell Developer Toolbox). The reference compound rosiglitazone was used to promote the differentiation of the CD31− cells and increase the expression of UCP1. Using a primary antibody that recognizes UCP1, Abcam ab23841, and a secondary antibody, Alexafluor 488 goat anti-rabbit antibody, we can quantify relative UCP1 levels per cell.
Referring to FIGS. 17A-17B, culturing and differentiation of CD31− cells into brown adipocytes were performed as described in Methods without (FIG. 17A) or with (FIG. 17B) rosiglitazone (1 μM) added to the adipogenic medium (MDM) from day 0. […] Alexafluor 488 goat anti-rabbit antibody was used to quantify relative UCP1 levels (green). […] UCP1 signal intensity was measured using the GE Developer Toolbox software on images collected on the InCell 1000 Automated High Content Imager. […]
Culturing and differentiation of CD31− cells into brown adipocytes were performed using adipogenic differentiation medium lacking (Minimal Differentiation Medium, MDM) or containing 1 μM rosiglitazone (Reference Differentiation Medium, RDM). […] As a readout, total intensity of UCP1 signal within the cell was used, normalized to cell number.

[2] = test system: UCP1 mRNA in human skeletal muscle (vastus lateralis); assay: UCP1 mRNA expression in skeletal muscle biopsies before and after rosiglitazone treatment in vivo
Protocol: Since the PPARγ agonist rosiglitazone was a strong inducer of UCP1 mRNA expression in muscle CD34+ cells in culture, the effect of this compound in vivo in humans was investigated. Vastus lateralis muscle biopsies from 7 obese patients with type 2 diabetes mellitus treated for the management of their metabolic syndrome with rosiglitazone were used. The biopsies were obtained before and after 8 weeks of treatment with rosiglitazone (2×4 mg per day). […] In that study rosiglitazone, concomitantly with the improvement in insulin sensitivity, increased the level of expression of UCP1 in muscle by about 1.6-fold. […] The results are the means±s.e.m. of arbitrary values normalized using the corresponding cyclophilin A values (n=7, *p<0.05 vs. control).
In FIG. 5, showing UCP1 mRNA levels in skeletal muscle biopsies from a patient group (n=7), “control” corresponds to levels before treatment, and “Rosi” corresponds to levels after treatment (8 weeks) with rosiglitazone. Being a longitudinal study the effect of rosiglitazone on UCP1 levels in each individual (comparison of individual values for the “control”-before and “Rosi”-after conditions) were determined. Starting with 25 ng cDNA (produced by reverse transcription of RNA) the threshold of detection (Ct) during real-time PCR was about 22 for UCP1 and about 18 for cyclophilin. The effect of rosiglitazone (UCP1 level at end of treatment vs. before treatment) were as follows: […]
Quantitative real-time PCR was performed using ABI rapid thermal cycler system and a SYBR Green PCR master mix (Applied Biosystems, Foster City, Calif.), or an ABI 7300 Real-time PCR instrument, a TaqMan Gene Expression Master Mix (Applied Biosystems #4369016) and TaqMan Gene Expression Pre-formulated Assays for human uncoupling protein-1 (GenBank NM_021833) (Applied Biosystems Assay ID Hs01084772_m1, TaqMan Gene Expression Assay part #4351372) and for human peptidylprolyl isomerase A “cyclophilin A” (GenBank NM_021130) (Applied Biosystems Assay ID Hs99999904_m1, TaqMan® Gene Expression Assay part #4448485). Cyclophilin A was used as a control to account for any variations due to the efficiency of the reverse transcription. The upstream and downstream oligonucleotide primers were chosen on both sides of an intron to prevent amplification of contaminating genomic DNA.
Primers used for real time quantitative PCR in human skeletal muscle are as follows:
Data are expressed as means±s.e.m. Significances were evaluated using the unpaired Student's t-test. A paired Student's t-test was used to determine the effects of rosiglitazone on human skeletal muscle UCP1 mRNA levels. Significances were set at p<0.05.

[3] = test system: human fetal muscle CD34+ cells; assay: UCP1 mRNA expression by quantitative RT-PCR in cultured fetal muscle CD34+ cells; format: cell-based; details: rosiglitazone 1 μM
Protocol: UCP1 mRNA expression in fetal muscle CD34+ cells could be modulated by drug treatment. Cell-permeating cAMP derivatives strongly stimulated (7 to 8-fold) UCP1 mRNA expression in both primary cultured and expanded cells. The effects of cAMP derivatives, 8-bromo-cAMP, 0.25 mM or (4-chlorophenylthio)-cAMP, 0.25 mM (cAMP) on UCP1 mRNA expression in CD34+ cells in primary culture (PC) or expanded up to passage 3 (P3) are shown in FIG. 3B. All the cells were grown for 4-6 days in EGM2 medium and then placed for 8-12 days in the adipogenic medium described under Materials and Methods. The results are means±s.e.m. of arbitrary values normalized using the corresponding cyclophilin A values. […]
Rosiglitazone, a PPARγ agonist, had no effect in primary culture cells but strongly stimulated (8-fold) UCP1 mRNA expression in expanded cells. The results are expressed as in FIG. 3B (**p<0.01, n=4-7). […]
Total cell RNA was prepared using the kit NucleoSpin® RNAII (Clontech, Palo Alto, Calif.), Extract-all solution (Eurobio, Courtaboeuf, France) or PureLink RNA Isolation Kit (Invitrogen #12183-016) and quantified by Biophotometry (Biophotometer, Eppendorf). […]
Arbitrary units were determined by normalizing target mRNA levels to cyclophilin mRNA levels (based on Cts), wherein the cyclophilin levels were first divided by 100,000 for ease of reference. […]

[4] = test system: human fetal muscle-derived CD31- cells; assay: UCP1 mRNA expression by quantitative RT-PCR in CD31- cells; format: cell-based; details: day 16 of differentiation; normalized with cyclophilin A; rosiglitazone 1 microM in MDM from day 0; BMP7 6 nM 2 days before day 0 then MDM
Protocol: UCP1 mRNA expression in human fetal muscle-derived CD31− cells at day 16 of differentiation were measured.
All the cells were grown for 3 days in proliferation medium (EGM2) and then (on day 0) placed for 16 days in adipogenic differentiation medium (Minimal Differentiation Medium, MDM). The “EGM2” cells were maintained in EGM2 medium all along. Rosiglitazone (1 microM) was added from day 0 and kept in the medium until the end of the study. BMP7 (6 nM) was added 2 days before day 0 and removed at day 0. Effects of differentiation medium (MDM vs. EGM2), rosiglitazone (MDM+rosi vs. MDM) and BPM7 (MDM+BMP7 vs. MDM) are shown as fold change (as compared to EGM2 cells) on UCP1 mRNA expression in human muscle-derived brown adipocyte progenitor cells (CD31-). […]
Quantitative real-time PCR was performed using ABI rapid thermal cycler system and a SYBR Green PCR master mix (Applied Biosystems, Foster City, Calif.), or an ABI 7300 Real-time PCR instrument, a TaqMan Gene Expression Master Mix (Applied Biosystems #4369016) and TaqMan Gene Expression Pre-formulated Assays for human uncoupling protein-1 (GenBank NM_021833) (Applied Biosystems Assay ID Hs01084772_m1, TaqMan Gene Expression Assay part #4351372) and for human peptidylprolyl isomerase A “cyclophilin A” (GenBank NM_021130) (Applied Biosystems Assay ID Hs99999904_m1, TaqMan® Gene Expression Assay part #4448485). […]

[5] = test system: CD56+ cells; assay: Differentiation of CD56+ cells in adipogenic medium; format: cell-based, human; details: MDM with or without rosiglitazone or BMP7
Protocol: (§1) With the aim of further purifying the CD34+ cells in search for the purest physiological brown adipocyte progenitors, stroma-vascular cells were purified from two independent samples of human fetal skeletal muscle (18-19 weeks of gestation). Following the CD45, CD56, CD34, and CD146 sorting described above, an additional step of FACS sorting using an anti-CD31 antibody was performed. The cells were sorted based on the presence of the mature endothelial cell surface marker CD31 (CD31+) or absence of that marker (CD31-). It was hypothesized that the CD31− subpopulation may be a purer progenitor of human brown adipocytes. The CD31− cell fraction amounted to about 80% of the CD34+ cell population derived from skeletal muscle. For purpose of simplicity, CD34+/CD45−/CD56−/CD146−/CD31− are called “CD31−” cells [EMC309 (CD31−) and EMC314 (CD31−)]. CD34+/CD45−/CD56−/CD146−/CD31+ are called “CD31+” cells [EMC309 (CD31+) and EMC314 (CD31+)]. In addition, the myogenic progenitor cells expressing the cell surface antigen CD56 (CD56+) were also sorted and cultured: CD34+/CD45−/CD56+ (from EMC314) and CD45−/CD56+ (from EMC309) are called “CD56+” cells [EMC309 (CD56+) and EMC314 (CD56+)].
(§2) The sorted cells (CD31−, CD31+, and CD56+ cell populations) were grown under the same conditions as described above, i.e., 2-4 days in proliferation medium (EGM2) and 10-16 days in adipogenic differentiation medium. […]

[6] = test system: CD31- cells (CD34+/CD45-/CD56-/CD146-/CD31-) from human fetal skeletal muscle; assay: Differentiation of CD31- cells into adipocyte-like multilocular cells / brown adipocytes; format: cell-based
Protocol: as §1, §2

[7] = test system: CD31+ cells (CD34+/CD45-/CD56-/CD146-/CD31+); assay: Differentiation of CD31+ cells in adipogenic medium; format: cell-based, human; details: MDM with or without rosiglitazone or BMP7
Protocol: as §1, §2

| Molecule | UCP1 intensity per nucleus [1] | increase of level of UCP1 protein ([1]; vs without rosiglitazone) [fold] | increase of level of expression of UCP1 in muscle ([2]; 7 obese type 2 diabetes patients, 8 weeks, 2×4 mg per day, group mean, after vs before treatment) | increase of UCP1 level at end of treatment vs. before treatment ([2]; individual patients 1-7, 8 weeks rosiglitazone 2×4 mg per day) | UCP1 mRNA level after treatment, normalized to cyclophilin A ([2]; individual patients 1-7, after 8 weeks rosiglitazone) | UCP1 level at end of treatment relative to control (before treatment) ([2]; individual patients 1-7, control = 100%) | stimulation of UCP1 mRNA expression ([3]; expanded cells (P3), vs untreated control) [fold] | effect on UCP1 mRNA expression ([3]; primary culture cells (PC)) | increase of UCP1 expression compared to EGM2 control condition [4] | differentiation of CD56+ cells into adipocyte-like multilocular cells [5] | differentiation of CD31- cells into brown adipocytes ([6]; 6 nM, before induction of differentiation (day -3 or -2 to day 0)) | fraction of CD31- cells differentiated into adipocyte-like multilocular cells ([6]; MDM containing the compound) | differentiation of CD31+ cells into adipocyte-like multilocular cells [7] |
| --- | --- | --- | --- | --- | --- | --- | --- | --- | --- | --- | --- | --- | --- |
| CN(CCOc1ccc(CC2SC(=O)NC2=O)cc1)c1ccccn1 (centres unmarked) [rosiglitazone] | 105,542 | 7 | about 1.6 fold | 180% and 8% and 310% and 10% and 50% and 80% | 730 arbitrary units and 600 arbitrary units and 556 arbitrary units and 142 arbitrary units and 652 arbitrary units and 453 arbitrary units and 677 arbitrary units | 280% and 108% and 410% and 110% and 150% and 100% and 180% | 8 | no effect | 507-553 fold | – | – | – | – |
| BMP7: recombinant human bone morphogenic protein-7 from R&D Systems (protein, UniProt P18075 293-431, looked up) Bone morphogenetic protein 7: STGSKQRSQNRSKTPKNQEALRMANVAENSSSDQRQACKKHELYVSFRDLGWQDWIIAPEGYAAYYCEGECAFPLNSYMNATNHAIVQTLVHFINPETVPKPCCAPTQLNAISVLYFDDSSNVILKKYRNMVVRACGCH | – | – | – | – | – | – | – | – | 78-127 fold | did not differentiate | strongly promoted | virtually all | did not differentiate |
